Data reported in patent US20240400577A1, “MODULATORS OF PROTEIN KINASES” (VIBLIOME THERAPEUTICS, LLC, priority 2021, published 2024).

Columns and labels:
Experiment in all cases: Kinase panel enzymatic inhibition assay (Nanosyn)
Type in all cases: biochemical
WEE1 = biological target: T1, WEE1 (Homo sapiens, UniProt P30291); conditions: ATP at Km; 30-minute pre-incubation; read-out: kinase inhibition in terms of IC50, WEE1
T1 construct: purchased Nanosyn
Method: (§1) The disclosed compounds were tested for activity against a panel of at least 300 kinases. Kinase panel screening was conducted by Nanosyn (Santa Clara, CA 95051) using an enzymatic inhibition assay accepted as valid by those skilled in the art (e.g., the Caliper LabChip® mobility shift assay, an ADP detection assay, or time-resolved fluorescence detection technology. Compounds were screened at a concentration of 5 μM using an ATP concentration at the Km for each of the respective kinases and a 30-minute pre-incubation time-point.
(§2) In Table 1 and 2, kinase inhibition is classified by: A=95% or greater, B=90%-94%, C=80%-89%, and D=79% and less with a compound concentration of 5 JIM. In Table 3 and 4, kinase inhibition is reported in terms of IC50 values corresponding to A=less than 500 nm, B=500 nm to less than 1 μM, C=1 μM to less than 10 μM, and D=10 μM or greater using a compound concentration of 5 μM.

PAK1 = biological target: T2, PAK1 (Homo sapiens, UniProt Q13153); conditions: ATP at Km; 30-minute pre-incubation; read-out: kinase inhibition in terms of IC50, PAK1
T2 construct: Nanosyn (contract laboratory that ran the panel)
Method: as §1, §2

SYK = biological target: T3, SYK (Homo sapiens, UniProt P43405); conditions: ATP at Km; 30-minute pre-incubation; read-out: kinase inhibition in terms of IC50, SYK
T3 construct: purchased Nanosyn
Method: as §1, §2

TYRO3 = biological target: T4, TYRO3 (Homo sapiens, UniProt Q06418); conditions: ATP at Km; 30-minute pre-incubation; read-out: kinase inhibition in terms of IC50, TYRO3
T4 construct: purchased Nanosyn
T4 sequence (Q06418 41-890): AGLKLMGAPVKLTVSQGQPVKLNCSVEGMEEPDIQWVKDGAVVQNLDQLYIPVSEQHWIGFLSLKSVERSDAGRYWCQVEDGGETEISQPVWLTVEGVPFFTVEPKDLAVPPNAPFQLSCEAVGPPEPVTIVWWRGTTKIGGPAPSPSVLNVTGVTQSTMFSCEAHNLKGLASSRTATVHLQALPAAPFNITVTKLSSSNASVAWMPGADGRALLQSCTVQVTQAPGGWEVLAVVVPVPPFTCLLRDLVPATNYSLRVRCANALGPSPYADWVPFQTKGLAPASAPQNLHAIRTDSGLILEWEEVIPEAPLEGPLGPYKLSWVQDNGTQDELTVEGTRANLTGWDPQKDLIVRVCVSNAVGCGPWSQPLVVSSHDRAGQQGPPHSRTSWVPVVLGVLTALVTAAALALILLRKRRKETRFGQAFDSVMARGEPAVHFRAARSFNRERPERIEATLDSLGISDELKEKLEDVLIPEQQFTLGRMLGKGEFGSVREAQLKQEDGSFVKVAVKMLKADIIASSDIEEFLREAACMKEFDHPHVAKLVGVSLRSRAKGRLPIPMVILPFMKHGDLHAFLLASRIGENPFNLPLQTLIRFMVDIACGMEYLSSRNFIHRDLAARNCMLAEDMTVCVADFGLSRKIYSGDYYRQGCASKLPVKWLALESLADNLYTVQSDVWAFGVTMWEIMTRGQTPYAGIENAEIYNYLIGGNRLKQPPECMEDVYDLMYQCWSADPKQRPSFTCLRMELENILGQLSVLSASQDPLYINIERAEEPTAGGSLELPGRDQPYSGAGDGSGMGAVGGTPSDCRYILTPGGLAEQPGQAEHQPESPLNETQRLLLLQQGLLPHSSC
Method: as §1, §2

RIPK1 = biological target: T5, RIPK1 (Homo sapiens, UniProt Q13546); conditions: ATP at Km; 30-minute pre-incubation; read-out: kinase inhibition in terms of IC50, RIPK1
T5 construct: purchased Nanosyn
T5 sequence (Q13546 1-671): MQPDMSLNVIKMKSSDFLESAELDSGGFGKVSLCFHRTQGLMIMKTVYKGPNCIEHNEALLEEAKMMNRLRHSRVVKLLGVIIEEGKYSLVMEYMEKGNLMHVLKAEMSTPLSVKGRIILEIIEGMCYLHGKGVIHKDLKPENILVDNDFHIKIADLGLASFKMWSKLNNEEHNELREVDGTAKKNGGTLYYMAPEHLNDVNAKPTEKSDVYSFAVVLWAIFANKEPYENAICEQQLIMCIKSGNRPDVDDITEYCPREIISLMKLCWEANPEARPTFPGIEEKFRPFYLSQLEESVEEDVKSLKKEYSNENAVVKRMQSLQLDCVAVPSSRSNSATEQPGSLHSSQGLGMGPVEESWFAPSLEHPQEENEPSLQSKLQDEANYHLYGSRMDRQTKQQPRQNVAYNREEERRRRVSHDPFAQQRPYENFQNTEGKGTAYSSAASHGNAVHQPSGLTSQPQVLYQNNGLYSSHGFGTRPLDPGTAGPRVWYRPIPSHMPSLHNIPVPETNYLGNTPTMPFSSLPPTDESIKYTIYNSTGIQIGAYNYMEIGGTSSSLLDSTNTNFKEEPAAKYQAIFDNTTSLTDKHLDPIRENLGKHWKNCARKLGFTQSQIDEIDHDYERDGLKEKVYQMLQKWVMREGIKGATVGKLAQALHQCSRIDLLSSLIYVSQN
Method: as §1, §2

RIPK2 = biological target: T6, RIPK2 (Homo sapiens, UniProt O43353); conditions: ATP at Km; 30-minute pre-incubation; read-out: kinase inhibition in terms of IC50, RIPK2
T6 construct: purchased Nanosyn
Method: as §1, §2

TAK1-TAB1 = biological target: T7, TAK1-TAB1 (Homo sapiens, UniProt O43318); conditions: ATP at Km; 30-minute pre-incubation; read-out: kinase inhibition in terms of IC50, TAK1-TAB1
T7 construct: purchased Nanosyn
T7 sequence (O43318 with tags, fused parts or gaps limits assumed): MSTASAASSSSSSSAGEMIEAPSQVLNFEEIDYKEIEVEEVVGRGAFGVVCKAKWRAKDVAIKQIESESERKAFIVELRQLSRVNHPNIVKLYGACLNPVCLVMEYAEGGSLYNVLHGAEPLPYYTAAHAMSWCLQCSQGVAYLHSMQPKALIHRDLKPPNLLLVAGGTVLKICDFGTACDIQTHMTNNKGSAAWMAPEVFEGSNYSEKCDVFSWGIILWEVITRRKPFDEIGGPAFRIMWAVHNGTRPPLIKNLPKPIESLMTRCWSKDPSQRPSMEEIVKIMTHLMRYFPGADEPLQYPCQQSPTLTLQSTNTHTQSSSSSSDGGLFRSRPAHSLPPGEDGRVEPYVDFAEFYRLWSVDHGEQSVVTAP
Method: as §1, §2

PLK4 = biological target: T8, PLK4 (Homo sapiens, UniProt O00444); conditions: ATP at Km; 30-minute pre-incubation; read-out: kinase inhibition in terms of IC50, PLK4
T8 construct: Nanosyn (contract laboratory that ran the panel)
T8 sequence (O00444 1-970): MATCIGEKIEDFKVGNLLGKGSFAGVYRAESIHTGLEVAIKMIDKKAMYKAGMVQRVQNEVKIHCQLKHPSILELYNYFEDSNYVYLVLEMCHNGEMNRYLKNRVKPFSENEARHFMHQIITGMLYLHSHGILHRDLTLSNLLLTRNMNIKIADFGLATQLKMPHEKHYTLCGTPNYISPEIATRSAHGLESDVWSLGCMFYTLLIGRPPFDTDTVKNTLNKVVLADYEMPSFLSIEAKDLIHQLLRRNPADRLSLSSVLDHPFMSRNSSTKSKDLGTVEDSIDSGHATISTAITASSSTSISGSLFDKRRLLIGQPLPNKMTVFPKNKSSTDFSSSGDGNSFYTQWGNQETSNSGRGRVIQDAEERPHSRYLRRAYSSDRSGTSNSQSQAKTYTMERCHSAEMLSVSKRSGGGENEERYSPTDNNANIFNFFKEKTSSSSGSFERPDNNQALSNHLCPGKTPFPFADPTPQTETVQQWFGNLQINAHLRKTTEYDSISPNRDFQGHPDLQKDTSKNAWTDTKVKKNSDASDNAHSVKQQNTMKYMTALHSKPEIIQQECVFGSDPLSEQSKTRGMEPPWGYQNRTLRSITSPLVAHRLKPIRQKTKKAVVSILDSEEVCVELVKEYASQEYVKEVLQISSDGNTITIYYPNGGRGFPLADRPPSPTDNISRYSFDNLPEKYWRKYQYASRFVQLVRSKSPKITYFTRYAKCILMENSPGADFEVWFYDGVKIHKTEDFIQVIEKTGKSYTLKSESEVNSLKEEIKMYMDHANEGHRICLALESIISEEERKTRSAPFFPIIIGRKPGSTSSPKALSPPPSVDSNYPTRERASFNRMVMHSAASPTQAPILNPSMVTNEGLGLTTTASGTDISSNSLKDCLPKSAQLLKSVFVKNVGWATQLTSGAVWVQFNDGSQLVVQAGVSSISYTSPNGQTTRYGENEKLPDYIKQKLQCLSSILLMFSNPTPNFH
Method: as §1, §2

T1 sequence (P30291 whole entry): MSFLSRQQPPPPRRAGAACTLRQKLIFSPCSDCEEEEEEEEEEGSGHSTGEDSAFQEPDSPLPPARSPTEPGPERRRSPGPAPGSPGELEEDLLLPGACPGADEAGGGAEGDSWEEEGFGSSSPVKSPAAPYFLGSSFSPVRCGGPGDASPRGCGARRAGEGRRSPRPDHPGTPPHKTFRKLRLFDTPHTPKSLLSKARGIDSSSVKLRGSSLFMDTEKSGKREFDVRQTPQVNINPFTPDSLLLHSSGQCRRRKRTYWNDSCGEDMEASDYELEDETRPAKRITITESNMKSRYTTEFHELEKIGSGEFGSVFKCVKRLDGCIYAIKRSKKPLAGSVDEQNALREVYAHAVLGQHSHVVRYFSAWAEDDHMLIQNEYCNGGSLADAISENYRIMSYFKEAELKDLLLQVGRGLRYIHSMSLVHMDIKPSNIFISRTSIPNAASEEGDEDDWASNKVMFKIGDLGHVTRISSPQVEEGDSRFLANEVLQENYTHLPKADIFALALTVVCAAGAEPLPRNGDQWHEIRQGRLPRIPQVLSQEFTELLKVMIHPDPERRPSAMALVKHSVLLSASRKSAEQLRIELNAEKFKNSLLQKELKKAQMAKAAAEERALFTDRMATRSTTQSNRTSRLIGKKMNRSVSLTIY
T6 sequence (O43353 whole entry): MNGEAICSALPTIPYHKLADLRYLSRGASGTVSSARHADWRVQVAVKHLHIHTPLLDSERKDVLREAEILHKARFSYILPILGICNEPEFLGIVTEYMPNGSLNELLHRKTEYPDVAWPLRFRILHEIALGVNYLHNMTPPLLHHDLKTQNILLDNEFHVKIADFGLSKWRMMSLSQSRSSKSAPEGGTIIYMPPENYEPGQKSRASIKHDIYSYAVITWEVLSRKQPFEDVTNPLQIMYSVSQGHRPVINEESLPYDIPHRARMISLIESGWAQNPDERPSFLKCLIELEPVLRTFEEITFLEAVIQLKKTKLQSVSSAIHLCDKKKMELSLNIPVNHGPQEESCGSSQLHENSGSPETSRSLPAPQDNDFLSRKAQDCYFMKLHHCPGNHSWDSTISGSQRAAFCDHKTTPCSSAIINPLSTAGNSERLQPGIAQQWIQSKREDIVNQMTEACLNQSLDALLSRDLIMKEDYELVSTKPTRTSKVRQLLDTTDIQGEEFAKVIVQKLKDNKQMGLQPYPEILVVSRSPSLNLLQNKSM
T2 sequence (Q13153 whole entry): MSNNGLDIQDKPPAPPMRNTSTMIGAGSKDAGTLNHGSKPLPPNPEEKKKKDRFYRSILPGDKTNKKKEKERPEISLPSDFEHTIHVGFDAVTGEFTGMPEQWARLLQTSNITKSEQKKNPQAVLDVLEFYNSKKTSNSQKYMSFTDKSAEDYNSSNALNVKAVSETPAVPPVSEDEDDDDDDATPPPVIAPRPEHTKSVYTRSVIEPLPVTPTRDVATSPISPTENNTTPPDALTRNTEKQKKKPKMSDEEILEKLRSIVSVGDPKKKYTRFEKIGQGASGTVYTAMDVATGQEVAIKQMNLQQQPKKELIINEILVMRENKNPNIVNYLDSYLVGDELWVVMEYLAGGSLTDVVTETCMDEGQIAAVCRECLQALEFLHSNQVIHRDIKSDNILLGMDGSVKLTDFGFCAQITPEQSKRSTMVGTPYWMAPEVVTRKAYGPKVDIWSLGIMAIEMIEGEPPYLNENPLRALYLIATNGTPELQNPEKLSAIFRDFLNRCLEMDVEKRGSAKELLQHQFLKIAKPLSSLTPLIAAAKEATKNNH

## CNc1ncc2c(C)c(-c3cc(NC(=O)c4ccn(-c5ccc(F)cc5)n4)ccc3Cl)c(=O)n(C)c2n1 [Ex69, N-(4-chloro-3-(5,8-dimethyl-2-(methylamino)-7-oxo-7,8-dihydropyrido[2,3-d]pyrimidin-6-yl)phenyl)-1-(4-fluorophenyl)-1H-pyrazole-3-carboxamide]
WEE1
  IC50: ≥ 10 µM

## CS(=O)(=O)c1cc(C(=O)Nc2cc(Br)c(F)c(C(=O)c3c[nH]c4ncc(Cl)cc34)c2F)nn1-c1ccc(F)cc1 [Ex70, N-(5-bromo-3-(5-chloro-1H-pyrrolo[2,3-b]pyridine-3-carbonyl)-2,4-difluorophenyl)-1-(4-fluorophenyl)-5-(methylsulfonyl)-1H-pyrazole-3-carboxamide]
WEE1
  IC50: ≥ 10 µM

## CNc1ncc2cc(-c3cc(NC(=O)c4ccn(-c5ccc(F)cc5)n4)ccc3C)c(=O)n(C)c2n1 [Ex74, 1-(4-fluorophenyl)-N-(4-methyl-3-(8-methyl-2-(methylamino)-7-oxo-7,8-dihydropyrido[2,3-d]pyrimidin-6-yl)phenyl)-1H-pyrazole-3-carboxamide]
PAK1
  IC50: ≥ 10 µM
SYK
  IC50: 1 to 10 µM
WEE1
  IC50: ≥ 10 µM

## COc1cc2nccc(Oc3ccc(NC(=O)c4cc(SC)n(-c5ccc(F)cc5)n4)c(F)c3)c2cc1OC [Ex77, N-(4-((6,7-dimethoxyquinolin-4-yl)oxy)-2-fluorophenyl)-1-(4-fluorophenyl)-5-(methylthio)-1H-pyrazole-3-carboxamide]
SYK
  IC50: ≥ 10 µM
TYRO3
  IC50: < 0.5 µM

## COc1cc2nccc(Oc3ccc(NC(=O)c4ccn(-c5ccc(F)cc5)n4)c(F)c3)c2cc1OC [Ex78, N-(4-((6,7-dimethoxyquinolin-4-yl)oxy)-2-fluorophenyl)-1-(4-fluorophenyl)-1H-pyrazole-3-carboxamide]
SYK
  IC50: 1 to 10 µM
TYRO3
  IC50: < 0.5 µM

## Cc1ccc(NC(=O)c2ccn(-c3ccc(F)cc3)n2)cc1C#Cc1cnc2cccnn12 [Ex79, 1-(4-fluorophenyl)-N-(3-(imidazo[1,2-b]pyridazin-3-ylethynyl)-4-methylphenyl)-1H-pyrazole-3-carboxamide]
RIPK1
  IC50: < 0.5 µM
RIPK2
  IC50: < 0.5 µM

## Cn1cnc2ccc(Oc3ccc(F)c(NC(=O)c4ccn(-c5ccc(F)cc5)n4)c3)cc2c1=O [Ex80, N-(2-fluoro-5-((3-methyl-4-oxo-3,4-dihydroquinazolin-6-yl)oxy)phenyl)-1-(4-fluorophenyl)-1H-pyrazole-3-carboxamide]
RIPK1
  IC50: ≥ 10 µM
RIPK2
  IC50: ≥ 10 µM

## Nc1ncnc2scc(C#Cc3cccc(NC(=O)c4ccn(-c5ccc(F)cc5)n4)c3)c12 [Ex81, N-(3-((4-aminothieno[2,3-d]pyrimidin-5-yl)ethynyl)phenyl)-1-(4-fluorophenyl)-1H-pyrazole-3-carboxamide]
SYK
  IC50: 1 to 10 µM

## CNc1ncc2cc(-c3c(Cl)ccc(NC(=O)c4ccn(-c5ccc(F)cc5)n4)c3Cl)c(=O)n(C)c2n1 [Ex82, N-(2,4-dichloro-3-(8-methyl-2-(methylamino)-7-oxo-7,8-dihydropyrido[2,3-d]pyrimidin-6-yl)phenyl)-1-(4-fluorophenyl)-1H-pyrazole-3-carboxamide]
WEE1
  IC50: ≥ 10 µM

## Cc1ccc(NC(=O)c2ccn(-c3ccc(F)cc3)n2)cc1Oc1ccnc2[nH]ccc12 [Ex83, N-(3-((1H-pyrrolo[2,3-b]pyridin-4-yl)oxy)-4-methylphenyl)-1-(4-fluorophenyl)-1H-pyrazole-3-carboxamide]
TAK1-TAB1
  IC50: ≥ 10 µM

## O=C(Nc1cccc(NC(=O)c2ccn(-c3ccc(F)cc3)n2)c1)c1cccc(-c2ccn[nH]2)n1 [Ex84, N-(3-(1-(4-fluorophenyl)-1H-pyrazole-3-carboxamido)phenyl)-6-(1H-pyrazol-5-yl)picolinamide]
PLK4
  IC50: ≥ 10 µM

## CC(=O)Nc1nc(C)c(-c2ccnc(Nc3cc(NC(=O)c4ccn(-c5ccc(F)cc5)n4)ccc3C)n2)s1 [Ex86, N-(3-((4-(2-acetamido-4-methylthiazol-5-yl)pyrimidin-2-yl)amino)-4-methylphenyl)-1-(4-fluorophenyl)-1H-pyrazole-3-carboxamide]
PLK4
  IC50: < 0.5 µM
